Results: article PMC11275179, “Superior Anticancer and Antifungal Activities of New Sulfanyl-Substituted Niclosamide Derivatives” (Biomedicines, 2024)

Tests used:
[1] = tested on: SK-GT-4 and FLO-1 EAC cells; assay: Colony formation assay; format: cell-based; settings: 1.5 µM (SK-GT-4) and 0.8 µM (FLO-1); both EAC cell lines
Procedure: In total, 500 SK-GT-4 and FLO-1 cells were seeded in each well of 6-well plates before 24 h treatment of niclosamide analog 3a IC50 concentration and an equivalent dose of niclosamide. The media was changed after 72 h with drug-free media to remove drug exposure and allow them to grow and form colonies for 10–12 days. At the end of the experiment, the colonies were washed using PBS three times, fixed with 10% formalin solution (Fisher Scientific#23-305510, Pittsburgh, PA, USA), and stained using a 1% crystal violet (Sigma-Aldrich#C6158, St. Louis, MO, USA) solution in 10% ethanol for 15 min. The colonies were then washed with water, dried at room temperature, counted, and imaged. The number of colonies in the treated cells was compared with untreated cells.

[2] = tested on: M. mycetomatis SO1 isolate; set-up: method as in PMID 34209118; settings: read-out: IC50 against the Somalian SO1 isolate; cited from earlier work
[3] = tested on: SK-GT-4 EAC cells; assay: MTT proliferation assay, SK-GT-4 cells; format: cell-based; settings: SKGT4, 72 h, read-out: Antiproliferative activity IC50, SK-GT-4
Procedure: (§1) The FLO-1, SK-GT-4, and THP-1 cell lines were a gift from Dr. Shrikant Anant’s laboratory. Cells were grown in 10% fetal bovine serum (Fisher Scientific#FB12999102, Pittsburgh, PA, USA) and 1% antibiotic/antimycotic agent (Corning, Tewksbury, MA, USA) in RPMI 1640 media mixed with […] HEPES, L-glutamine (Corning, MA, USA). The cell lines were grown in a 5% CO2 incubator at 37 °C and used below 15 passages for the experiments.
(§2) The proliferation assay used a 3-(4,5-dimethylthiazol-2-yl)-2,5-diphenyltetrazolium bromide (MTT) assay. Briefly, 5000 FLO-1 and SK-GT-4 cells were counted and seeded in each well in 96-well plates. Post 24 h of incubation, EAC cells were treated with multiple concentrations (0–10 μM) of niclosamide (Cayman chemical#10649, Ann Arbor, MI, USA) and its analogs. At respective time points, 10 μL of stock MTT reagent (Millipore Sigma, Bedford, MA, USA) (3 mg/mL) was added to each well and incubated for 1–2 h under the dark at 37 °C. After incubation, the purple formazan crystals were dissolved in equal volumes of DMSO, and the absorbance of the resulting clear solutions was recorded at 570 nm using a microplate reader. A CCK-8 (Abcam, Cat no. ab228554, Burlingame, CA, USA) assay was used for the THP-1 cells. Briefly, 5000 cells were plated in every well of a 96-well plate. After 24 h of plating, THP-1 cells were treated with niclosamide and compound 3a. After the respective time point, an equal amount of CCK-8 reagent was pipetted to the wells and incubated for one hour in an incubator, and finally, the absorbance was recorded at 450 nm. The percent change in the proliferation was calculated by comparing the cell viability of the treated groups to the untreated control cells.

[4] = tested on: STAT3; assay: Western blot, p-STAT3 and STAT3 in EAC cells; format: cell-based; settings: SK-GT-4 1.5 µM and FLO-1 0.8 µM, 72 h
Procedure: (§3) A total of 500,000 FLO-1 and SK-GT-4 cells were seeded in 10 cm^2 dishes. After 24 h, cells were incubated with a vehicle, niclosamide analog 3a (IC50 concentration), and niclosamide (equivalent dose of 3a IC50 concentration). Then, 72 h post-treatment with the compounds, the media were removed to eliminate the dead/floating cells and washed with PBS. The cells were then scraped using a cell scraper in the lysis buffer containing a protease/phosphatase inhibitor cocktail (Thermo Scientific# A32959, Rockford, IL, USA). Further cells were lysed and sonicated using a probe sonicator (Fisher Scientific Model no FB120). The resulting lysates were centrifuged at 6500 rpm and 4 °C for 10 min. […] (Thermo Scientific, Rockford, IL, USA) method was used to estimate total protein levels in the prepared cell lysates, which were diluted with lysis buffer mixed with 2× Laemmli buffer (Biorad#1610737, Hercules, CA, USA) and boiled for 5 min at […]. Equal volumes of protein (50 μg) were used on the SDS-PAGE for separation using gel electrophoresis. […]

[5] = tested on: SK-GT-4 cells; assay: Spheroid formation assay; format: cell-based; settings: 1.5 µM, SK-GT-4, 7 days
Procedure: In the ultra-low attachment plates (Corning, Lowell, MA, USA), 500 SK-GT-4 cells were seeded in each well with the spheroid media [DMEM medium supplemented with EGF (20 ng/mL), FGF (20 ng/mL), heparin (4 µg/mL), B27 (10 mL in 500 mL of 50×) (Invitrogen, Carlsbad, CA, USA), and antibiotic pen/strep (1%)]. After 24 h, spheroids were treated with 3a (IC50 dose) and an equivalent dose of niclosamide. Spheroids were counted after 7 days, and images were taken.

[6] = tested on: M. mycetomatis MM55 strain; assay: In vitro susceptibility testing (MTS), MM55 strain; format: cell-based, Madurella mycetomatis; settings: Madurella mycetomatis, MM55STRAIN
Procedure: The antifungal activity of the compounds was tested against a geographically and genetically diverse set of M. mycetomatis isolates. These included the MM55 strain from Sudan, strains I1, I3, and […] from India, strain P1 from Mali, strain SO1 from Somalia, strain Peru72012 from Peru, and strain CBS247.48 whose country of origin was unknown. All isolates were originally obtained from patients and identified and maintained in the Erasmus Medical Centre, Rotterdam, The Netherlands. In vitro susceptibility testing was performed as reported previously. The only difference was that tetrazolium compound 3-(4,5-dimethylthiazol-2-yl)-5-(3-carboxymethoxyphenyl)-2-(4-sulfophenyl)-2H-tetrazolium salt (MTS) was used as a viability dye in endpoint reading instead of 2,3-bis-(2-methoxy-4-nitro-5-sulfophenyl)-2H-tetrazolium-5-carboxanilide salt (XTT).

[7] = tested on: β-catenin; assay: Western blot, active non-phospho-β-catenin in EAC cells; format: cell-based; settings: SK-GT-4 1.5 µM and FLO-1 0.8 µM, 72 h
Procedure: as §3

[8] = tested on: FLO-1 EAC cells; assay: MTT proliferation assay, FLO-1 cells; format: cell-based; settings: FLO-1, 72 h, read-out: Antiproliferative activity IC50, FLO-1
Procedure: as §1, §2

O=C(Nc1ccc([N+](=O)[O-])cc1Cl)c1cc(Cl)ccc1O [Niclosamide]
Inhibition of colony formation [1]: slightly less efficient than 3a
IC50 [2]: 2.38 µM
IC50 [3]: 1.77 ± 0.77 µM
Activating phosphorylation of STAT3 at TYR705 (Western blot) [4]: inhibited activating STAT3 phosphorylation but not as strongly as 3a
Inhibition of spheroid formation [5]: inhibit spheroid formation
IC50 ([6]; read-out: Antifungal activity IC50): 15 ± 1.6 µM
IC90 ([6]; read-out: Antifungal activity IC90): 23.8 ± 0.1 µM
Active (non-phosphorylated) β-catenin (Western blot) [7]: suppressed
IC50 [8]: 1.05 ± 0.28 µM
